This assay deals with T1, bovine serum albumin (BSA) (Bos taurus, UniProt P02769).
T1 construct: gene ALB
In words: intrinsic fluorescence quenching (eugenol […]). In kind it is binding.

Molecules are shown by their SMILES.

T1 sequence (P02769 25-607): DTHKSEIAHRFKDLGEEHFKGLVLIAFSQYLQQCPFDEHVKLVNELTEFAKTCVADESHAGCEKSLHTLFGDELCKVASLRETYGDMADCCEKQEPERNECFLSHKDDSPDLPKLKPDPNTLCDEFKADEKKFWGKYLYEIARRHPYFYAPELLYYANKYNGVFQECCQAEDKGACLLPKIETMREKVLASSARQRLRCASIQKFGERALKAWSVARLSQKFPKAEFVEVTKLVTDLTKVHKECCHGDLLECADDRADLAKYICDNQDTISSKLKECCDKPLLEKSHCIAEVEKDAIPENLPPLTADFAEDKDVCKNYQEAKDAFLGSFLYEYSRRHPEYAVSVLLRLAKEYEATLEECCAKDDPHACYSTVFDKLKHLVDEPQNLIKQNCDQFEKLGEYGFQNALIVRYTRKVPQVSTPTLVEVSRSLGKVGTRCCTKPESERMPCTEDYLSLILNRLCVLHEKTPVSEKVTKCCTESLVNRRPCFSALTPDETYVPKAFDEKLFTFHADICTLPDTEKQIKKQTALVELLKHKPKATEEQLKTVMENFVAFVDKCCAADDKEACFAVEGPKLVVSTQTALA

Turning to `C=CCc1ccc(O)c(OC)c1` [EUG, eugenol], the “intrinsic fluorescence quenching (eugenol 1-50 mM)” value is “In the intrinsic fluorescence assay, it was evident that eugenol binds to BSA in a concentration dependent manner”.
